# Measurements taken from PMC5149019, “Synthesis, Characterization and Cytotoxicity of Alkylated Quercetin Derivatives” (Iranian Journal of Pharmaceutical Research : IJPR, 2016).
# Experiments:
# MCF-7 cells = test: MTT cytotoxicity assay, MCF-7 cells; format: cell-based, human; conditions: for IC50: Homo sapiens, MCF7, MCF-7 cells, 48 h exposure, MTT
# Protocol: (§1) Taking solubility of the derivatives into consideration, BQ and GQ were selected for the primary cytotoxicity study. According to the result of the primary cytotoxicity study, the cytotoxicity of GQ on NCI-H446, A549, MGC-803 and SGC-7901 cell lines was further investigated. To justify the effectiveness of BQ and GQ, cytotoxicity of the parent compound quercetin on all the cell lines used in this study was determined either. Briefly, 8000 cells with 0.1 mL medium were seeded in 96-well microplates. The derivatives or quercetin were dissolved in DMSO (50 mM) and then diluted with the medium to a series of testing concentrations. After exposure to the derivatives or quercetin for 48 h, cells were carefully washed by PBS three times and then 0.1 mL MTT (0.5 mg/mL) was added to each well. DMSO was used as solvent for following spectrum analysis at 570 nm. Proliferation values were calculated with the formula as follow: proliferation = (Atest-Ablank)/(Acontrol-Ablank). According to the proliferation data, all IC50 values were calculated by SPSS software using probit regression assay.
# [1] = Solubility in DMEM medium by turbidimetry; format: physicochemical; conditions: turbidimetry at 630 nm; for solubility at 48 h: 37 °C, aqueous buffer, kinetic from dmso stock
# Protocol: Solubility of the derivatives was evaluated by turbidimetry as previously described ([7]). Briefly, derivatives were dissolved in DMSO at a final concentration of 50 mM, and then diluted by DMEM medium at final concentrations of 20, 40, 60, 80, 100, 120, 140, 160, 180 and 200 μM. After these solutions were incubated at 37 ℃ for 48 h, absorbances of them at 630 nm were measured.
# Caco-2 cells = test: MTT cytotoxicity assay, Caco-2 cells; format: cell-based; conditions: Homo sapiens, 48 h exposure
# Protocol: as §1
# NCI-H446 = test: MTT cytotoxicity assay, NCI-H446 cells; format: cell-based; conditions: Homo sapiens, 48 h exposure
# Protocol: as §1
# A549 = test: MTT cytotoxicity assay, A549 cells; format: cell-based; conditions: Homo sapiens, 48 h exposure
# Protocol: as §1
# MGC-803 = test: MTT cytotoxicity assay, MGC-803 cells; format: cell-based; conditions: Homo sapiens, 48 h exposure
# Protocol: as §1
# SGC-7901 = test: MTT cytotoxicity assay, SGC-7901 cells; format: cell-based; conditions: Homo sapiens, 48 h exposure
# Protocol: as §1
# cancer cells = conditions: cited from earlier work
# [2] = compared with quercetin, ref [5]
smiles,measurement,setting,value
"C=CCOc1cc(O)c2c(=O)c(O)c(-c3ccc(O)c(O)c3)oc2c1 [AQ, 7-O-allylquercetin]",inhibition rate to MCF-7 cells,MCF-7 cells; at the highest concentration,less than 50%
same,solubility at 48 h,[1],~140 µM
"O=c1c(O)c(-c2ccc(O)c(O)c2)oc2cc(OCC=Cc3ccccc3)cc(O)c12 [CQ, 7-O-cinnamylquercetin]",solubility in DMEM medium (in words),"[1]; 37 ℃, 48 h",almost insoluble
"CC(C)=CCC/C(C)=C/COc1cc(O)c2c(=O)c(O)c(-c3ccc(O)c(O)c3)oc2c1 [GQ, 7-O-geranylquercetin]",IC50,MCF-7 cells,20.2 µM
same,IC50,Caco-2 cells,43.7 µM
same,IC50,NCI-H446,27.6 µM
same,IC50,A549,29.5 µM
same,IC50,MGC-803,25.4 µM
same,IC50,SGC-7901,18.5 µM
same,solubility at 48 h,[1],~180 µM
"CCCCOc1cc(O)c2c(=O)c(O)c(-c3ccc(O)c(O)c3)oc2c1 [BQ, 7-O-Butylquercetin]",IC50,MCF-7 cells,38.6 µM
same,IC50,Caco-2 cells,66.8 µM
same,solubility at 48 h,[1],~180 µM
"CC(=O)Oc1cc(O)c2c(=O)c(OC(C)=O)c(-c3ccc(OC(C)=O)c(OC(C)=O)c3)oc2c1 [3,7,3′,4′-O-tetraacetylquercetin]",cytotoxicity compared with quercetin,cancer cells; [2],about 3 fold
O=c1c(O)c(-c2ccc(O)c(O)c2)oc2cc(O)cc(O)c12 [Quercetin],IC50,MCF-7 cells,343 µM
same,IC50,Caco-2 cells,340 µM
same,IC50,NCI-H446,68.9 µM
same,IC50,A549,77.2 µM
same,IC50,MGC-803,80.6 µM
same,IC50,SGC-7901,75.7 µM
"COc1cc(O)c2c(=O)c(OC)c(-c3ccc(OC)c(OC)c3)oc2c1 [3,7,3′,4′-O-tetramethylquercetin]",cytotoxicity compared with quercetin (in words),cancer cells; [2],decreases the cytotoxicity
"O=c1c(O)c(-c2cc(O)c(O)c(S(=O)(=O)O)c2)oc2c(S(=O)(=O)O)c(O)cc(O)c12 [quercetin-5′,8-disulfonate]",increased cytotoxicity relative to quercetin,"cancer cells; relative to quercetin, ref [4]",about 1.5 fold
